Experimental data published in patent US20240108734A1, “METHODS FOR TREATING AND AMELIORATING CANCER” (The Regents of the University of California, priority 2021, published 2024).
“Also recorded” adds a separate entry of the source.

Assays:
telomerase = target: T1, telomerase (Homo sapiens, UniProt O14746); test: TRAP telomerase activity assay in BC CML engrafted human CD45+ cells; type: in vivo; conditions: imetelstat compared with vehicle, p<0.0002
T1 construct: Cell lysates from 5×10^5 CD34^+ selected cells from BC CML engrafted mice or K562 cells were prepared; endogenous in cells; host or cells: human CD45+ / CD34+ cells selected from bone marrow or spleen of BC CML engrafted mice
Protocol: Telomere length was determined using the Telomere PNA Kit/FITC for Flow Cytometry (Dako, Cat #K5327) with a MACSQuant10 and analyzed with FlowJo software. The Relative Telomere Length (RTL) was calculated by dividing the mean fluorescence intensity (MFI) of the test sample G0/G1 population by the MFI of the normal peripheral blood reference G0/G1 population using the Cycletest™ Plus DNA Kit (BD, Cat #340242). Telomerase activity was determined using the TRAPeze Kit RT Telomerase Detection Kit (Millipore, Catalog No. S7710).
Samples were selected from engrafted mouse bone marrow or spleen with human CD45+ immunomagnetic beads (Miltenyi). Telomere length was determined by using the Telomere PNA Kit/FITC for Flow Cytometry (Dako, Cat #K5327). Samples were run on the MACSQuant10 and analyzed with FlowJo software. The Relative Telomere Length (RTL) was calculated. The 1301 cell line was utilized as control cells. The DNA index was determined with the (BD Cycletest™ Plus DNA Kit, Cat #340242). […] Telomerase activity was determined by using TRAPeze Kit RT Telomerase Detection Kit (Millipore, Catalog No. S7710). […]
FIG. 5D. Telomerase activity in BC CML engrafted human CD45^+ cells, as measured by TRAP assay, in vehicle (red), mismatch control (blue) and imetelstat (green) treated BC CML mice.

beta-catenin [1] = test: FACS analysis of activated beta-catenin in LSC engrafted mice; type: in vivo, human; conditions: LSC engrafted mice BM; compared with vehicle controls
Text: A lentiviral TCF/LEF reporter was utilized in human blast crisis CML cells, K562^1. Lentiviral pCDH backbone, ADAR1^WT, shControl, and shADAR1 K562 stable cell lines were transduced with pGreenFire1-TCF/LEF1 reporter (SBI) lentivirus for 72-hours and analyzed using CellTiter-Glo and One-Glo luciferase assays (Promega). Mean fluorescence intensity (MFI) of activated beta-catenin in human CD45^+ cells, HSCs (CD45^+CD34^+CD38^− Lin) and HPCs (CD45^+CD34^+[…] Lin) from engrafted mouse bone marrow and spleen was analyzed with a Miltenyi Biotec MACS Quant flow cytometer after staining with lineage, CD45, CD34 and CD38 (BD antibodies) as well as LIVE/DEAD stain, followed by 1% paraformaldehyde fixation, permeabilization with saponin, and staining with an anti-active beta-catenin antibody (Millipore cat #05-665, and BD custom conjugation) (see Supplementary Appendix).
To assess WNT/beta-catenin activation in response to ADAR1 upregulation, a lentiviral TCF/LEF reporter was utilized in human blast crisis CML cells, K562^26. […] A minimum of 50,000 cells were plated in duplicate, lysed according to the manufacturer's protocol, and measured using preloaded protocols on a Promega GloMax Discover Microplate Reader. One-Glo luciferase readouts were normalized to corresponding CellTiter-Glo values. […]

[2] = system: normal cord blood CD34+ cells; test: Normal HSC (cord blood CD34+) engrafted mouse model; type: in vivo, mice
Protocol: FIG. 9A-B graphically illustrate data showing that normal HSC mouse xenograft models were established with normal cord blood CD34^+ cells by intrahepatic injection into neonatal Rag2^−/− c^−/− mice; FACS analysis of mice treated with either vehicle (0.9% NS), mismatch control (30 mg/kg) or imetelstat (30 mg/kg) followed by quantification of human CD45^+ cells in BM (FIG. 9A) and in spleen (FIG. 9B);

beta-catenin [3] = test: FACS analysis of beta-catenin in normal HSC engrafted mouse model; type: in vivo; conditions: human CD45+ cells and CD34+CD38- stem cells in BM
Protocol: To assess WNT/beta-catenin activation in response to ADAR1 upregulation, a lentiviral TCF/LEF reporter was utilized in human blast crisis CML cells, K562^26. Lentiviral pCDH backbone, ADAR1^WT, shControl, and shADAR1 K562 stable cell lines were transduced with pGreenFire1-TCF/LEF1 reporter (SBI) lentivirus for 72-hours prior to CellTiter-Glo and One-Glo luciferase assays (Promega). A minimum of 50,000 cells were plated in duplicate, lysed according to the manufacturer's protocol, and measured using preloaded protocols on a Promega GloMax Discover Microplate Reader. One-Glo luciferase readouts were normalized to corresponding CellTiter-Glo values. Activated beta-catenin levels in HSC and HPCs were also quantified using a MACS Quant instrument following staining of cells with Viability Near-IR, Lineage PE-Cy5, CD45 BV510, CD34 BV421, CD38 PE-Cy7, GFP, and beta-catenin AF647 antibodies (Becton Dickinson, Inc). […] Mean fluorescence intensity (MF) of active beta-catenin in human CD45+ cells, HSCs (CD45^+CD34^+CD38^− Lin) and HPCs (CD45^+CD34^+CD38^+Lin^−) derived from engrafted bone marrow and spleen was determined with a Miltenyi Biotec MACS Quant flow cytometer.

T1 sequence (O14746 whole entry): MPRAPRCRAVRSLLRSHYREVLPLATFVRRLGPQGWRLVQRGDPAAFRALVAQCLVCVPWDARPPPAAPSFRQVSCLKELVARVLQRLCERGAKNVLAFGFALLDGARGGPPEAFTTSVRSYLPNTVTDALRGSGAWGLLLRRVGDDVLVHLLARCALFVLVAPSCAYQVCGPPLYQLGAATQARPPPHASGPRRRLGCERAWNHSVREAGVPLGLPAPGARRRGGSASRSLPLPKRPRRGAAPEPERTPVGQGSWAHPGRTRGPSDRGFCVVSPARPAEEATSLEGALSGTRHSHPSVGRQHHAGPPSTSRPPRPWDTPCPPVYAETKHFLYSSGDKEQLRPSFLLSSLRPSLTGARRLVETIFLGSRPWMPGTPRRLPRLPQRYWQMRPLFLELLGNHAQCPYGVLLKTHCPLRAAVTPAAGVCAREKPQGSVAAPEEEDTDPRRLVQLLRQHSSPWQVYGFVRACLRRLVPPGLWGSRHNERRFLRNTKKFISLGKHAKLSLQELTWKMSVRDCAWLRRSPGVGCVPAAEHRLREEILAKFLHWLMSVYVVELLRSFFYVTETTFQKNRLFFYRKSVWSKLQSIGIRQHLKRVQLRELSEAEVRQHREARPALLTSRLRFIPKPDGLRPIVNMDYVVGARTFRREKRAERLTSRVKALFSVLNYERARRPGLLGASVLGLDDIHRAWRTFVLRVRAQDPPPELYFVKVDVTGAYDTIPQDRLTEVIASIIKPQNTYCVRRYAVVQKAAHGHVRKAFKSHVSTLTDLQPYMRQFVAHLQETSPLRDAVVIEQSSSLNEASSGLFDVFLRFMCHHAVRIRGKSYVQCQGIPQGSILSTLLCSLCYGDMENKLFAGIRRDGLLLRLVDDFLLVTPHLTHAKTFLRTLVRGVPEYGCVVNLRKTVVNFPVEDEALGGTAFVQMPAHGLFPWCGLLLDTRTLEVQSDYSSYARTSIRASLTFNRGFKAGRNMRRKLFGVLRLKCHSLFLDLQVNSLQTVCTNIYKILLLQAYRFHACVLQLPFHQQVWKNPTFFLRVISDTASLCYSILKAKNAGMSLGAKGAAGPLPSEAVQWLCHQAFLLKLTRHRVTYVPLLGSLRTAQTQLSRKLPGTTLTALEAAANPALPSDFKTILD
T1 sequence (O60832 whole entry partner): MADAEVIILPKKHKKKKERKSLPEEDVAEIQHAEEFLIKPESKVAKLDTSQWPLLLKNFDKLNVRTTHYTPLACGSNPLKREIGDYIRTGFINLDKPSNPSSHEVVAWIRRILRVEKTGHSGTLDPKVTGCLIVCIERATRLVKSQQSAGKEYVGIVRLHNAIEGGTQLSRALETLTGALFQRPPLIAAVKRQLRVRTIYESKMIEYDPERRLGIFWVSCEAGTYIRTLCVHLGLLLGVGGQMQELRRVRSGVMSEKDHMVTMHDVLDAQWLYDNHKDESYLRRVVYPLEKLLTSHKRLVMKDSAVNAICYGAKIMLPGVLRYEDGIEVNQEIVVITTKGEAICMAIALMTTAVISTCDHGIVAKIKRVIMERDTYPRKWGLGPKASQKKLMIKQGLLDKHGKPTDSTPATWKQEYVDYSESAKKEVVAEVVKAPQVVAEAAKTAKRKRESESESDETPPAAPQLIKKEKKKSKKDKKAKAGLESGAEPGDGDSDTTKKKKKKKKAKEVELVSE
T1 sequence (Q9NX24 whole entry partner): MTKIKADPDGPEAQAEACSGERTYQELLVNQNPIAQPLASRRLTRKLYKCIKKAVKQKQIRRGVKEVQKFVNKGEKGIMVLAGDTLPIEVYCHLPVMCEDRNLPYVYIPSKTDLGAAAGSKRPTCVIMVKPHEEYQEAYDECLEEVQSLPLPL
T1 sequence (Q9NPE3 whole entry partner): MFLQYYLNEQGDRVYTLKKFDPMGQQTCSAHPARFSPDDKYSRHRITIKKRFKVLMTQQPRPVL
T1 sequence (Q9NY12 whole entry partner): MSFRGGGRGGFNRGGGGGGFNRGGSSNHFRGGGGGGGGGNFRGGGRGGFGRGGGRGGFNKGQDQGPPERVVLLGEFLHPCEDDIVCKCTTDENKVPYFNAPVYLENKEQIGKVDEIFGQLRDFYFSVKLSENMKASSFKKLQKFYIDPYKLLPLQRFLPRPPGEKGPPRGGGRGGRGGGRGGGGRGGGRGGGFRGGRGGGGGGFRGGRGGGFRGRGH
T1 sequence (Q9BUR4 whole entry partner): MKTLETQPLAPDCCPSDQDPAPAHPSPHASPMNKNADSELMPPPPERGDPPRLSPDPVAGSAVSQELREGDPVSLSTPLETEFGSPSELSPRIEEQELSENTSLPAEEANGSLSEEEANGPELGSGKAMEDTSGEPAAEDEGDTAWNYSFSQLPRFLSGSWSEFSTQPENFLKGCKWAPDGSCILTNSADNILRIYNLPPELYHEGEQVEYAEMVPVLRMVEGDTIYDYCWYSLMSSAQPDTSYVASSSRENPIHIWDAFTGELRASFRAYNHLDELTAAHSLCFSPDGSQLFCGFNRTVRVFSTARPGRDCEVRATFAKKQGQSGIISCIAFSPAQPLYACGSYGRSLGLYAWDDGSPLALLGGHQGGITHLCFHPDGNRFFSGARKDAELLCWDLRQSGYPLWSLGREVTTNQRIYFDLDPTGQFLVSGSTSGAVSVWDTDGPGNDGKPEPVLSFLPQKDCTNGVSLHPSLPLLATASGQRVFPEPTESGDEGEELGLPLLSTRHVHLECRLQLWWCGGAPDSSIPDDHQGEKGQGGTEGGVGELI

imetelstat
telomerase activity by TRAP assay (telomerase): reduction | activated beta-catenin expression / activity by FACS (beta-catenin [1]): significant reduction; also recorded: significantly reduced | effect on normal hematopoietic stem cells ([2]; at doses reducing malignant RNA editing): spared normal hematopoietic stem cells | normal cord blood engraftment (human CD45+ cells) ([2]; imetelstat 30 mg/kg vs vehicle and mismatch control, BM and spleen): no significant decrease; also recorded: does not reduce | beta-catenin expression / activity in normal HSC engrafted mice (beta-catenin [3]): no significant decrease; also recorded: does not reduce; also recorded: no significant difference
